Reference: patent publication US8987195B2 (priority 2012, dated 2015)
pEC50, pIC50: −log10 of the molar value. Where two headings read alike, the source gives them in different places.

Assays:
HCV genotype 1b replicon = assay: HCV replicon assay, genotype 1b replicon EC50; assay type: cell-based, Hepatitis C virus; settings: Hepatitis C virus, read-out: EC50 [gt-1b]
How it was run: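 Compound dilution series incubated 24-48 h, G418 absent, with HCV genotype 1b replicon cell lines kept under G418 selection beforehand. Luciferase signal or replicon RNA, by ^32P hybridization/protection or TaqMan normalized to cyclophilin A, was measured after washing and lysis. Four-parameter fitting against DMSO control gave EC50.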

[1] = target: HCV NS3/4A protease genotype 1b (Hepatitis C virus genotype 1b, UniProt P26663); assay: HCV NS3/4A protease time-resolved fluorescence (TRF) assay, Ki against genotype 1b; assay type: biochemical; settings: for pIC50: IC50 [gt-1b], NS3/4A protease TRF assay, genotype 1b enzyme 0.2 nM; for IC50: IC50 [gt-1b] (nM), NS3/4A genotype 1b, enzyme 0.2 nM
How it was run: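 Time-resolved fluorescence readout of NS3/4A cleavage of 25 nM europium-labelled peptide over 2.5 h at room temperature, enzyme levels set for signal/background 10–30 (0.2, 0.4, 0.025 nM for 1b, A156T, 3a). Ki by IC50=Ki(1+[S]/KM).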

[2] = genotype 1b replicon, HCOOH salt

| Structure (SMILES) | pEC50 (HCV genotype 1b replicon; HCV replicon, genotype 1b) | pIC50 [1] | pEC50 (HCV genotype 1b replicon; genotype 1b replicon) | IC50 [1] [nM] | further results |
| --- | --- | --- | --- | --- | --- |
| COc1ccc2nc(C)c3c(c2c1)CC[C@]1(C[C@H]2C(=O)N[C@]4(C(=O)NS(=O)(=O)C5(C)CC5)C[C@H]4/C=C\CCCCC[C@H](NC(=O)OC(C(C)(C)C)C(F)(F)F)C(=O)N2C1)O3 (stereo partly drawn) [Example 366, 1,1,1-trifluoro-3,3-dimethylbutan-2-yl [(2R,6S,12Z,13aS,14aR,16aS)-9′-methoxy-5′-methyl-14a-{[(1-methylcyclopropyl)sulfonyl]carbamoyl}-5,16-dioxo-1,1′,2′,5,6,7,8,9,10,11,13a,14,14a,15,16,16a-hexadecahydrospiro[cyclopropa[e]pyrrolo[1,2-a][1,4]diazacyclopentadecine-2,3′-pyrano[2,3-c]quinolin]-6-yl]carbamate] | 8.19 | 10.64 |  |  |  |
| CC(C)(C)COC(=O)N[C@H]1CCCCC/C=C\[C@@H]2C[C@@]2(C(=O)NS(=O)(=O)C2(C)CC2)NC(=O)[C@@H]2C[C@]3(CCc4c(c(C(F)F)nc5ccccc45)O3)CN2C1=O [Example 311, 2,2-dimethylpropyl [(2R,6S,12Z,13aS,14aR,16aS)-5′-(difluoromethyl)-14a-{[(1-methylcyclopropyl)sulfonyl]carbamoyl}-5,16-dioxo-1,1′,2′,5,6,7,8,9,10,11,13a,14,14a,15,16,16a-hexadecahydrospiro[cyclopropa[e]pyrrolo[1,2-a][1,4]diazacyclopentadecine-2,3′-pyrano[2,3-c]quinolin]-6-yl]carbamate] |  |  | 8.91 | 0.008 |  |
| Cc1nc2ccc(C(F)(F)F)cc2c2c1O[C@]1(CC2)C[C@H]2C(=O)N[C@]3(C(=O)NS(=O)(=O)C4(C)CC4)C[C@H]3/C=C\CCCCC[C@H](NC(=O)OC(C)(C)C(F)(F)F)C(=O)N2C1 [Example 319, 1,1,1-trifluoro-2-methylpropan-2-yl [(2R,6S,12Z,13aS,14aR,16aS)-5′-methyl-14a-{[(1-methylcyclopropyl)sulfonyl]carbamoyl}-5,16-dioxo-9′-(trifluoromethyl)-1,1′,2′,5,6,7,8,9,10,11,13a,14,14a,15,16,16a-hexadecahydrospiro[cyclopropa[e]pyrrolo[1,2-a][1,4]diazacyclopentadecine-2,3′-pyrano[2,3-c]quinolin]-6-yl]carbamate] |  |  |  |  | pEC50 (HCV genotype 1b replicon; genotype 1b replicon, K+ salt): 7.75; IC50 ([1]; K+ salt): 0.044 nM |
| CC(C)(C)OC(=O)N[C@H]1CCCCC/C=C\[C@@H]2C[C@@]2(C(=O)NS(=O)(=O)C2(C)CC2)NC(=O)[C@@H]2C[C@]3(CCc4c(c(C(F)(F)F)nc5c(Cl)cccc45)O3)CN2C1=O [Example 31, tert-butyl ((2R,6S,13aS,14aR,16aS,Z)-7′-chloro-14a-(((1-methylcyclopropyl)sulfonyl)carbamoyl)-5,16-dioxo-5′-(trifluoromethyl)-1′,2′,3,5,6,7,8,9,10,11,13a,14,14a,15, 16,16a-hexadecahydro-1H-spiro[cyclopropa[e]pyrrolo[1,2-a][1,4]diazacyclopentadecine-2,3′-pyrano[2,3-c]quinolin]-6-yl)carbamate] |  |  | 8.81 | 0.02 |  |
| COCCOc1ccc2nc(C)c3c(c2c1)CC[C@]1(C[C@H]2C(=O)N[C@]4(C(=O)NS(=O)(=O)C5(C)CC5)C[C@H]4/C=C\CCCCC[C@H](NC(=O)OC(C)(C)C)C(=O)N2C1)O3 [Example 409, tert-butyl [(2R,6S,12Z,13aS,14aR,16aS)-9′-(2-methoxyethoxy)-5′-methyl-14a-{[(1-methylcyclopropyl)sulfonyl]carbamoyl}-5,16-dioxo-1,1′,2′,5,6,7,8,9,10,11,13a,14,14a,15,16,16a-hexadecahydrospiro[cyclopropa[e]pyrrolo[1,2-a][1,4]diazacyclopentadecine-2,3′-pyrano[2,3-c]quinolin]-6-yl]carbamate] | 8.33 | 10.70 |  |  |  |
| COc1ccc2nc(C)c3c(c2n1)CC[C@]1(C[C@H]2C(=O)N[C@]4(C(=O)NS(=O)(=O)C5(C)CC5)C[C@H]4/C=C\CCCCC[C@H](NC(=O)OC4(C)CC4)C(=O)N2C1)O3 [Example 364, 1-methylcyclopropyl [(2R,6S,12Z,13aS,14aR,16aS)-2′-methoxy-6′-methyl-14a-{[(1-methylcyclopropyl)sulfonyl]carbamoyl}-5,16-dioxo-1,5,6,7,8,9,9′,10,10′,11,13a,14,14a,15,16,16a-hexadecahydrospiro[cyclopropa[e]pyrrolo[1,2-a][1,4]diazacyclopentadecine-2,8′-pyrano[2,3-c][1,5]naphthyridin]-6-yl]carbamate] | 8.26 | 10.92 |  |  |  |
| CCC1(OC(=O)N[C@H]2CCCCC/C=C\[C@@H]3C[C@@]3(C(=O)NS(=O)(=O)C3(C)CC3)NC(=O)[C@@H]3C[C@]4(CCc5c(c(C(F)(F)F)nc6ccc(OC)cc56)O4)CN3C2=O)CC1 [Example 452, 1-ethylcyclopropyl [(2R,6S,12Z,13aS,14aR,16aS)-9′-methoxy-14a-{[(1-methylcyclopropyl)sulfonyl]carbamoyl}-5,16-dioxo-5′-(trifluoromethyl)-1,1′,2′,5,6,7,8,9,10,11,13a,14,14a,15,16,16a-hexadecahydrospiro[cyclopropa[e]pyrrolo[1,2-a][1,4]diazacyclopentadecine-2,3′-pyrano[2,3-c]quinolin]-6-yl]carbamate] | 8.62 | 10.52 |  |  |  |
| Cc1nc2ccccc2c2c1O[C@]1(CC2)C[C@H]2C(=O)N[C@]3(C(=O)NS(=O)(=O)C4(C)CC4)C[C@H]3/C=C\CCCCC[C@H](NC(=O)N(C)c3ccccc3)C(=O)N2C1 [Example 292, (2R,6S,12Z,13aS,14aR,16aS)-5′-methyl-N-[(1-methylcyclopropyl)sulfonyl]-6-{[methyl(phenyl)carbamoyl]amino}-5,16-dioxo-1,1′,2′,6,7,8,9,10,11,13a,14,15,16,16a-tetradecahydrospiro[cyclopropa[e]pyrrolo[1,2-a][1,4]diazacyclopentadecine-2,3′-pyrano[2,3-c]quinoline]-14a(5H)-carboxamide] |  |  |  |  | pEC50 (HCV genotype 1b replicon; [2]): 7.56; IC50 ([1]; HCOOH salt): 0.077 nM |
| COc1ccc2nc(C(F)(F)F)c3c(c2c1)CC[C@]1(C[C@H]2C(=O)N[C@]4(C(=O)NS(=O)(=O)C5(C)CC5)C[C@H]4/C=C\CCCCC[C@H](NC(=O)OC4CCCC4)C(=O)N2C1)O3 [Example 217, cyclopentyl [(2R,6S,12Z,13aS,14aR,16aS)-9′-methoxy-14a-{[(1-methylcyclopropyl)sulfonyl]carbamoyl}-5,16-dioxo-5′-(trifluoromethyl)-1,1′,2′,5,6,7,8,9,10,11,13a,14,14a,15,16,16a-hexadecahydrospiro[cyclopropa[e]pyrrolo[1,2-a][1,4]diazacyclopentadecine-2,3′-pyrano[2,3-c]quinolin]-6-yl]carbamate] |  |  | 7.99 | 0.024 |  |
| CC(C)(C)OC(=O)N[C@H]1CCCCC/C=C\[C@@H]2C[C@@]2(C(=O)O)NC(=O)[C@@H]2C[C@]3(CCc4c(cnc5ccccc45)O3)CN2C1=O [Example 101, (2R,6S,12Z,13aS,14aR,16aS)-6-[(tert-butoxycarbonyl)amino]-5,16-dioxo-1,1′,2′,6,7,8,9,10,11,13a,14,15,16,16a-tetradecahydrospiro[cyclopropa[e]pyrrolo[1,2-a][1,4]diazacyclopentadecine-2,3′-pyrano[2,3-c]quinoline]-14a(5H)-carboxylic acid] |  |  | < 7.00 | 38.2 |  |
| COc1ccc2nc(C(F)(F)F)c3c(c2c1)[C@@H](F)C[C@]1(C[C@H]2C(=O)N[C@]4(C(=O)NS(=O)(=O)C5(C)CC5)C[C@H]4/C=C\CCCCC[C@H](NC(=O)OC(C)(C)C)C(=O)N2C1)O3 [Example 426, tert-butyl [(l′S,2S,6S,12Z,13aS,14aR,16aS)-1′-fluoro-9′-methoxy-14a-{[(1-methylcyclopropyl)sulfonyl]carbamoyl}-5,16-dioxo-5′-(trifluoromethyl)-1,1′,2′,5,6,7,8,9,10,11,13a,14,14a,15,16,16a-hexadecahydrospiro[cyclopropa[e]pyrrolo[1,2-a][1,4]diazacyclopentadecine-2,3′-pyrano[2,3-c]quinolin]-6-yl]carbamate] | 7.67 | 9.22 |  |  |  |
| Cc1nc2ccccc2c2c1O[C@]1(CC2)C[C@H]2C(=O)N[C@]3(C(=O)NS(=O)(=O)C4(C)CC4)C[C@H]3/C=C\CCCCC[C@H](NCCC(C)(C)C)C(=O)N2C1 [Example 164, (2R,6S,12Z,13aS,14aR,16aS)-6-[(3,3-dimethylbutyl)amino]-5′-methyl-N-[(1-methylcyclopropyl)sulfonyl]-5,16-dioxo-1,1′,2′,6,7,8,9,10,11,13a,14,15,16,16a-tetradecahydrospiro[cyclopropa[e]pyrrolo[1,2-a][1,4]diazacyclopentadecine-2,3′-pyrano[2,3-c]quinoline]-14a(5H)-carboxamide] |  |  | 8.57 | 0.132 |  |
| COc1ccc2c3c(c(C4CC4)nc2c1)O[C@]1(CC3)C[C@H]2C(=O)N[C@]3(C(=O)NS(=O)(=O)C4(C)CC4)C[C@H]3/C=C\CCCCC[C@H](NC(=O)OCCF)C(=O)N2C1 [Example 277, 2-fluoroethyl [(2R,6S,12Z,13aS,14aR,16aS)-5′-cyclopropyl-8′-methoxy-14a-{[(1-methylcyclopropyl)sulfonyl]carbamoyl}-5,16-dioxo-1,1′,2′,5,6,7,8,9,10,11,13a,14,14a,15,16,16a-hexadecahydrospiro[cyclopropa[e]pyrrolo[1,2-a][1,4]diazacyclopentadecine-2,3′-pyrano[2,3-c]quinolin]-6-yl]carbamate] |  |  |  |  | pEC50 (HCV genotype 1b replicon; [2]): 7.09; IC50 ([1]; HCOOH salt): 1.05 nM |
